# Experimental data: ChEMBL document CHEMBL2074344, “Active efflux of the 5-HT(1A) receptor agonist flesinoxan via P-glycoprotein at the blood-brain barrier” (Eur J Pharm Sci, 2001)
# Assays:
# [1] = target: ATP-dependent translocase ABCB1 (Mus musculus, UniProt P21447); assay: TP_TRANSPORTER: increase in brain concentration in mdr1a(-/-) mouse; assay type: functional, organism-based; conditions: in vivo
# [2] = target: ATP-dependent translocase ABCB1 (Homo sapiens, UniProt P08183); assay: TP_TRANSPORTER: transepithelial transport (basal to apical) in MDR1-expressing LLC-PK1 cells; assay type: functional, cell-based; conditions: pig
# ATP-dependent translocase ABCB1 (Homo sapiens, UniProt P08183), sequence (P08183 whole entry): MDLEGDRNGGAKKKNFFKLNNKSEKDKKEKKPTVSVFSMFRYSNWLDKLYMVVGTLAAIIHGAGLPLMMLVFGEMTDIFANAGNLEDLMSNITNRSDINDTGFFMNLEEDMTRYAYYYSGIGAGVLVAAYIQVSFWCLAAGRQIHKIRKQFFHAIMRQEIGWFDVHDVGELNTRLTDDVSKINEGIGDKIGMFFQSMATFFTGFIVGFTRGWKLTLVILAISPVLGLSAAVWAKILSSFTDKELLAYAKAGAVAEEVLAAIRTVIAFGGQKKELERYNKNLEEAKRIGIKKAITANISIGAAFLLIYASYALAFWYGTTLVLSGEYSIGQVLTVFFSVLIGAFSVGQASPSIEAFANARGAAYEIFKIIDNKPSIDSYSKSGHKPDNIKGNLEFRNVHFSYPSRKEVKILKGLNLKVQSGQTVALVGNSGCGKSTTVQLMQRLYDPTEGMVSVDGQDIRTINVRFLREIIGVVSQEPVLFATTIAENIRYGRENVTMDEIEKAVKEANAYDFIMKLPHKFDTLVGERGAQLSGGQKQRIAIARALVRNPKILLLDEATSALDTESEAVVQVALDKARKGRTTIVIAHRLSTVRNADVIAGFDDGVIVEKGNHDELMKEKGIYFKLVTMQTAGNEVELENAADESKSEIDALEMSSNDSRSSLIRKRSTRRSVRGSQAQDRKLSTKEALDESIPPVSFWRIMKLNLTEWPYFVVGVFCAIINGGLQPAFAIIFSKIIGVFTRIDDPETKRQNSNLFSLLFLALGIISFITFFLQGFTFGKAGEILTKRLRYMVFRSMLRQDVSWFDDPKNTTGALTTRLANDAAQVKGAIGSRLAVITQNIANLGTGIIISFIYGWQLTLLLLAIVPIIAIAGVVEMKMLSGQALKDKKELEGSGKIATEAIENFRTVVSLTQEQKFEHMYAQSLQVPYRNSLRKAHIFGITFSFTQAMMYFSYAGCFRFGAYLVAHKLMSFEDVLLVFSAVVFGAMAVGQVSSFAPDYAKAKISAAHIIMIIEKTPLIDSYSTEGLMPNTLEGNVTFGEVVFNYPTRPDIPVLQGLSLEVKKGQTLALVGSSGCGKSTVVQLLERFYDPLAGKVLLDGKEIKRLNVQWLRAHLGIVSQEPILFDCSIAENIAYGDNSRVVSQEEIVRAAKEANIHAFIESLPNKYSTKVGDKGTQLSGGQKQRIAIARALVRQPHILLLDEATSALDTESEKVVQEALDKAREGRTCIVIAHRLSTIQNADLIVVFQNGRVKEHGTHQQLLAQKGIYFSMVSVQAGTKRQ
# ATP-dependent translocase ABCB1 (Mus musculus, UniProt P21447), sequence (P21447 whole entry): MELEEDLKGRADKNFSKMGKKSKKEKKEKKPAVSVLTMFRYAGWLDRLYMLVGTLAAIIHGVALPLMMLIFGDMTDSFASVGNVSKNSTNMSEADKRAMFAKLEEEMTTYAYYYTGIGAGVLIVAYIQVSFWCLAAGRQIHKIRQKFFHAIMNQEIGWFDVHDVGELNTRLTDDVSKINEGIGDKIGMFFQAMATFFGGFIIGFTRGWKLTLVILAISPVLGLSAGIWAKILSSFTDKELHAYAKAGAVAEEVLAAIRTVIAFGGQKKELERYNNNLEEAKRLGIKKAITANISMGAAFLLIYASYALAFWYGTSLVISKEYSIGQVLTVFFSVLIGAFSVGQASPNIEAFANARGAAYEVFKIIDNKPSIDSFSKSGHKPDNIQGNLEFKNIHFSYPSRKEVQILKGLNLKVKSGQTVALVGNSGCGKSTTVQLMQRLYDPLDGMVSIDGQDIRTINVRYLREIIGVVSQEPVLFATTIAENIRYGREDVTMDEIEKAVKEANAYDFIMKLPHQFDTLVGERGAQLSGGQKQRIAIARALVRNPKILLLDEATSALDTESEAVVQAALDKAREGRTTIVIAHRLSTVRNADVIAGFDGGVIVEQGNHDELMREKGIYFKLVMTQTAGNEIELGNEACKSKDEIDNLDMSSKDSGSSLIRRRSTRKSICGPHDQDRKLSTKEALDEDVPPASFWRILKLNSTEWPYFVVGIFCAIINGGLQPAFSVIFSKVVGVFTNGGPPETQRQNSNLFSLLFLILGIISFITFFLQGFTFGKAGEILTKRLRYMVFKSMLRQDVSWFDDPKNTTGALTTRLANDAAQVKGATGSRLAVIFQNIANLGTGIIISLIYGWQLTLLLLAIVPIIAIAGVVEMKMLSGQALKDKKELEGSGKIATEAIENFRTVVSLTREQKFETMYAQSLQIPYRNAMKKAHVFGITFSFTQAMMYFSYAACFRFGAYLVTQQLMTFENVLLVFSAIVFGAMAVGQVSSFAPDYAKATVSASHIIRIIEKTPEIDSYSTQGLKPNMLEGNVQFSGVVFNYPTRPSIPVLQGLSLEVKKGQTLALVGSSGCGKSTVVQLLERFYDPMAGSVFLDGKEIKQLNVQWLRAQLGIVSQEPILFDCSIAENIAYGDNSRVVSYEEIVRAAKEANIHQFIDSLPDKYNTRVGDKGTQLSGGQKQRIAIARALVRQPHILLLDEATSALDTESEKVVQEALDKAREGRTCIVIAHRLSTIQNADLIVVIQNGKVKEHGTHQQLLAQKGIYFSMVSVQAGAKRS
structure (smiles),measurement,setting,value
O=C(NCCN1CCN(c2cccc3c2OC[C@H](CO)O3)CC1)c1ccc(F)cc1 [FLESINOXAN],Activity,[1],substrate [+]
same,Activity,[2],substrate [+]
